Measured values from publication PMC3668458 (Journal of neuroscience research, 2011).

Molecular target: α4β2 nicotinic acetylcholine receptor (α4 subunit) (Homo sapiens, UniProt P17787+P43681)
Experiment: whole-cell patch clamp, Schild plot analysis of inhibition of ACh currents
Format: cell-based

α4β2 nicotinic acetylcholine receptor (α4 subunit), sequence (P43681 27-627): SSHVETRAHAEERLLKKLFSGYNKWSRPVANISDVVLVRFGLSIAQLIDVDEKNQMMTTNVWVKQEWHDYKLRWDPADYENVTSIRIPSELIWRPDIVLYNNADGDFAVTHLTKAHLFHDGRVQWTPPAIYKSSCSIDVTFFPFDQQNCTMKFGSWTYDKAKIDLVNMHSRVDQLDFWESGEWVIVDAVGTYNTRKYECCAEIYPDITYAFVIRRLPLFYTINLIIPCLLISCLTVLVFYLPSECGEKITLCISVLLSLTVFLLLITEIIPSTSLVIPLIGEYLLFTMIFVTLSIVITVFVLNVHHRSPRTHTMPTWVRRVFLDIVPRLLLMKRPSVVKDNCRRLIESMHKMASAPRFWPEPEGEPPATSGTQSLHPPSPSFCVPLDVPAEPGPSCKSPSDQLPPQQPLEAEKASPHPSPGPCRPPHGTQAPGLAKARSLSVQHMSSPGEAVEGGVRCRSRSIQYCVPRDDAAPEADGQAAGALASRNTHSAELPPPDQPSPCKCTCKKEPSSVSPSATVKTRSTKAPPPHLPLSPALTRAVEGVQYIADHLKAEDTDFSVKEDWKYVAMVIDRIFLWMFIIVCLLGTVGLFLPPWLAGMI
α4β2 nicotinic acetylcholine receptor (α4 subunit), sequence (P17787 26-502): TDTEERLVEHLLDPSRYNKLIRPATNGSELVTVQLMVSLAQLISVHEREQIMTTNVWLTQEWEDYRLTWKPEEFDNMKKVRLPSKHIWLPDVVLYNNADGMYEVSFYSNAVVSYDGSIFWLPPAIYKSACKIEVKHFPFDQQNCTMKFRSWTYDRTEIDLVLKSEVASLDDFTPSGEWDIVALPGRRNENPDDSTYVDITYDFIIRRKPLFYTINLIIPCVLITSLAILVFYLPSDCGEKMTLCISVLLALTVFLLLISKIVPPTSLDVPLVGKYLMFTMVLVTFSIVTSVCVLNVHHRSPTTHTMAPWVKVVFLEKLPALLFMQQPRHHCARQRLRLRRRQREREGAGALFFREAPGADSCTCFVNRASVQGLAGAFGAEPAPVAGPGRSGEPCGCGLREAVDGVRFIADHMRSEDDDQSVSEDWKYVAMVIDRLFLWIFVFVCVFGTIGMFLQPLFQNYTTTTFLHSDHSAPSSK

## O=[N+]([O-])NC1=NCCN1Cc1ccc(Cl)nc1 [IMI, imidacloprid]
  Kb: 18.2 ± 0.9 µM
